What was measured:
isolated urethra of rat = experiment: Inhibition of field stimulation-induced contractions of isolated rat proximal urethra; details: inhibition of urethral contractions by field stimulation (20 Hz, 0.5 msec, maximal voltage), atropine 1 uM in medium, range 1 pM-1 nM, printed interval (0.09-0.18), read-out: EC₅₀
Protocol: (§1) In the "in vitro" studies, male albino rats, Wistar Nossan strain, weighing 300-350 g were used. Animals were sacrificed by cervical dislocation and the proximal urethra was quickly excised, cleaned of connective tissues and then suspended in an organ bath and tied to an isometric force transducer, under resting tension of 0.5 g. Experiments were performed at 37°C and the bathing medium (gassed with 95% O₂ and 5% CO₂) had the following composition (mM): NaCl 119, KCl 4.7, MgSO₄ 1.5, […], CaCl₂ 2.5, NaHCO₃ 25 and glucose 11. Experiments were carried out after 60 min equilibration period.
(§2) In a first group of experiments a cumulative concentration response curve to alpha₁-adrenoceptor selective agonist, phenylephrine, was obtained in control conditions or in presence of the compound of invention (1 nM). The compound of invention (1 nM) produced a rightward parallel displacement of concentration response curve to phenylephrine with a pA₂ of 9.18±0.12. In another set of experiments urethral contractions were obtained by means of field stimulation (20 Hz, 0.5 msec, maximal voltage; trains of 5 sec every 4 min). These contractions (obtained in a medium additionated with atropine 1 uM) were TTX-sensitive and probably due to stimulation of adrenergic fibers. […]

[1] = system: urethane anaesthetized normotensive rats; experiment: Hypotensive effect in urethane-anaesthetized normotensive rats; format: in vivo, rat; details: i.v. administration
Protocol: (§3) Male albino rats, Wistar strain, weighting 300-350 g, were treated for 2 weeks with testosterone propionate at the dose of 3 mg/Kg s.c.. Afterwards animals were anaesthetized with urethane 40% s.c. (0.3 ml/hg) and then transvescical cystometrogram were perfused according to the method of Maggi et al. (J. Pharmacol. Meth. 15, 157; 1986). Testosterone-treated animals were characterized by the appearance of frequent, scarcely effective, micturition complexes and by a very high residual volume (about double than controls). […] It is important to underline that in urethane anaesthetized normotensive rats, i.v. administration of compound of invention exerts an hypotensive effect in the range 3-100 ug/kg.

[2] = system: rat acutely treated with hexamethonium; experiment: Transvesical cystometrogram in rats acutely treated with hexamethonium (urethral outflow obstruction); format: in vivo; details: pretreatment at doses lower than 3 ug/Kg i.v.
Protocol: (§4) In the "vivo" studies two experimental models characterized by urethral outflow obstruction were used: a) rat chronically treated with testosterone and b) rat acutely treated with hexamethonium.
Urethane-anaesthetized male albino rats, Wistar strain weighing 300-350 g, were used.
Administration of hexamethonium (40 mg/Kg i.v.) 5 minutes before start of transvescical cystometrogram produced in about 75% of animals an overflow incontinence coupled to high values of intravescical pressure.

[3] = system: rat chronically treated with testosterone; experiment: Transvesical cystometrogram in rats chronically treated with testosterone (urethral outflow obstruction); format: in vivo; details: 0.1-3 ug/Kg i.v.; rats treated for 2 weeks with testosterone propionate 3 mg/Kg s.c.; urethane anaesthesia
Protocol: as §4, §3

alpha₁-adrenoceptor = experiment: Antagonism of the phenylephrine concentration-response curve in isolated rat proximal urethra; details: versus phenylephrine, compound at 1 nM, rightward parallel displacement of the curve
Protocol: as §1, §2

EC50 (isolated urethra of rat): 0.13 nM | dose range exerting an hypotensive effect [1]: 3 to 100 µg/kg
Structure (SMILES): CCOC(CN1CCN(c2ccccc2OC)CC1)c1cccnc1 (racemic) [compound of invention, 1-(2-ethoxy-2-(3′-pyridyl)ethyl)-4-(2′-methoxy-phenyl)piperazine]
intravescical pressure ([2]; hexamethonium 40 mg/Kg i.v.): lower intravescical pressure values | overflow incontinence ([2]; hexamethonium 40 mg/Kg i.v. (about 75% of animals incontinent without pretreatment)): never produced overflow incontinence | voiding efficiency [3]: clear, objective and prompt beneficial action on the voiding efficiency | pA₂ (alpha₁-adrenoceptor): 9.18±0.12
